The source of these data is patent US6825354B2 (Wyeth Holdings Corporation, priority 1999, dated 2004).

The target in the first assay is TNF-α converting enzyme (TACE) (Homo sapiens, UniProt P78536). The experiment in a line: TACE inhibition, fluorescent peptidyl substrate. The class given is biochemical.
Sequence of TNF-α converting enzyme (TACE) (P78536 215-824): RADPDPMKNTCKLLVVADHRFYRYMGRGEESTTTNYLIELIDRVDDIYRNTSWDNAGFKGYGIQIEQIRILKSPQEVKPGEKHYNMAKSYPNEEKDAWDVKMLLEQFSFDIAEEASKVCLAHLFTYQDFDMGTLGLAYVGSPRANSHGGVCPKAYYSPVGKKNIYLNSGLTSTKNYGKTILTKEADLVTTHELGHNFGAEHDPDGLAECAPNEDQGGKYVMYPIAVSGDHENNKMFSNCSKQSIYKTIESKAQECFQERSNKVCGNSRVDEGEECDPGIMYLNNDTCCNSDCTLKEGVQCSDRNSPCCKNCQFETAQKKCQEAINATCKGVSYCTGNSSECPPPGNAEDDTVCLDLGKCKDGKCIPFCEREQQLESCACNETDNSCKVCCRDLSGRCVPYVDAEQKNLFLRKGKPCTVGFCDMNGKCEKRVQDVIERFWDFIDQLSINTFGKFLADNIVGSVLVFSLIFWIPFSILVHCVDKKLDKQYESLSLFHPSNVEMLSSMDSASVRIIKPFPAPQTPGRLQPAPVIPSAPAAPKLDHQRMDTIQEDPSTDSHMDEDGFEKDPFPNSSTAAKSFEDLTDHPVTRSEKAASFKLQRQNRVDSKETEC
Conditions: not given
Here is the method:
[…] The reaction is initiated by addition of a fluorescent peptidyl substrate (final concentration 100 μM) to each well and then shaking on a shaker for 5 sec.
The reaction is read (excitation 340 nm, emission 420 nm) for 10 min. and the increase in fluorescence over time is plotted as a linear line. The slope of the line is calculated and represents the reaction rate.
The mean (x±sem) of the control rate is calculated and compared for statistical significance (p<0.05) with drug-treated rates using Dunnett's multiple comparison test.
The compound `CC#CCOc1ccc([S+]([O-])[C@H](C(=O)NO)c2ccc(OC)cc2)cc1` (single isomer, unassigned) [Example 78] returned an IC50 of 17.6 nM.

Still in this assay, the particulars now being: Table 1, first part; read-out: TACE IC50.
Regarding “2-(4-But-2-ynyloxy-benzenesulfinyl)-6-[2-(1,3-dioxo-1,3-dihydro-isoindol-2-yl)-acetylamino]-hexanoic acid hydroxyamide [Example 55]”, the IC50 turned out to be 38.5 nM.

For the compound `CC#CCOc1ccc([S+]([O-])C(CCCCNC(=O)c2nccc3ccccc23)C(=O)NO)cc1` (stereo not shown) [Example 31, Isoquinoline-1-carboxylic acid [5-(4-but-2-ynyloxy-benzenesulfinyl)-5-hydroxycarbamoyl-pentyl]-amide], the IC50 amounted to 28.3 nM.

Take `CC#CCOc1ccc(S(=O)(=O)C(CCCCNC(=O)Cc2ccc(Cl)c(Cl)c2)C(=O)NO)cc1` (stereo not shown) [Example 37, 2-(4-But-2-ynyloxy-benzenesulfonyl)-6-[2-(3,4-dichloro-phenyl)-acetylamino]-hexanoic acid hydroxyamide]: the IC50 came out at 43.7 nM.

Consider `CC#CCOc1ccc(SC(CCCCNC(=O)CNC(=O)Cc2ccc(Cl)c(Cl)c2)C(=O)NO)cc1` (stereo not shown) [Example 43, 2-(4-but-2-ynyloxy-phenylsulfanyl)-6-{2-[2-(3,4-dichloro-phenyl)-acetylamino]-acetylamino}-hexanoic acid hydroxyamide], for which the IC50 was 32.5 nM.

Take `CC#CCOc1ccc(S(=O)(=O)C(CCCCNC(=O)CNC(=O)Cc2ccc(Cl)c(Cl)c2)C(=O)NO)cc1` (stereo not shown) [Example 65, 2-(4-But-2-ynyloxy-benzenesulfonyl)-6-{2-[2-(3,4-dichloro-phenyl)-acetylamino]-acetylamino}-hexanoic acid hydroxyamide]: the IC50 is 52.1 nM.

“N-[5-(4-But-2-ynyloxy-phenylsulfanyl)-5-hydroxycarbamoyl-pentyl]-2-phenethyl-benzamide [Example 15]”: the IC50 stood at 138 nM.

In the case of “N-{[5-(4-But-2-ynyloxy-phenylsulfanyl)-5-hydroxy-carbamoyl-pentylcarbamoyl]-methyl}-2-phenethyl-benzamide [Example 46]”, the IC50 came to 84.2 nM.

“Quinoline-2-carboxylic acid [5-(4-but-2-ynyloxy-benzenesulfinyl)-5-hydroxycarbamoyl-pentyl]-amide [Example 54]”: the IC50 is 27.2 nM.

The same assay, now with this note: Table 1, second part; footnote a: % @ 10 μM.
As to `CC#CCOc1ccc(S(=O)(=O)C(C(=O)NO)c2ccc(-c3cccs3)cc2)cc1` (stereo not shown) [Example 91, 2-{[4-(2-butynyloxy)phenyl]sulfonyl}-N-hydroxy-2-[4-(2-thienyl)phenyl]acetamide], the “TACE % @ 10 μM” value is listed as 48%.

As to `CC#CCOc1ccc(SC(C(=O)NO)c2ccc3ccccc3c2)cc1` (stereo not shown) [Example 114, 2-{[4-(2-Butynyloxy)phenyl]sulfanyl}-2-(2-naphthyl)-N-hydroxyacetamide], the “TACE % @ 10 μM” value was 40.90%.

Staying with this assay, now noted: Table 1, second part; footnote a: IC50 (nM); read-out: TACE IC50.
For the compound `CC#CCOc1ccc([S+]([O-])[C@@H](C(=O)NO)c2ccc(-c3cccs3)cc2)cc1` (stereo partly drawn) [Example 90, (2R)-2-{[4-(2-butynyloxy)phenyl]sulfinyl}-N-hydroxy-2-[4-(2-thienyl)phenyl]ethanamide], the IC50 came out at 682 nM.

On to `CC#CCOc1ccc(SC(C(=O)NO)c2ccc(F)cc2)cc1` (stereo not shown) [Example 95], for which the IC50 came to 108 nM.

The IC50 is the concentration at which inhibition is half-maximal.
